The numbers were not newly measured in patent publication US10736894B2, “Methods of treating developmental syndromes with PDE10A inhibitors” (Ovid Therapeutics Inc., priority 2018, dated 2020), which cites them from elsewhere.

SMILES strings stand for the structures.

The conditions of data set [1]: 100 mg dose.
The mark [2] stands for this setting: single dose 3-1000 mg, volunteers.

Turning to `COc1cn(-c2ccc(-n3cccn3)cc2F)nc(-c2ccnn2-c2ccccc2)c1=O` [1-[2-fluoro-4-(1H-pyrazol-1-yl)phenyl]-5-methoxy-3-(1-phenyl-1H-pyrazol-5-yl)-pyridazin-4(1H)-one], under “all dose cohorts 3-1000 mg”, the “deaths, serious adverse events, discontinuations due to adverse events” value was “no deaths, serious adverse events, or discontinuations due to adverse events”. For the same compound, under setting [2], the “drug-related adverse event: orthostatic hypotension” value is given as 9.1%, the “drug-related adverse event: orthostatic tachycardia” value was 19.7% and the “drug-related adverse event: somnolence” value was 33.3%. Moreover, the oral bioavailability result in data set [1] (fed conditions versus fasting) is “increased oral bioavailability”. In data set [1] (fed conditions), the Tmax is recorded as 6 h.

A word on the Tmax: it is the time from dosing to the highest level.
